Measured values: ChEMBL document CHEMBL4828709, “Discovery of 2,4-pyrimidinediamine derivatives as potent dual inhibitors of ALK and HDAC” (Eur J Med Chem, 2021)

Assays:
A549 [1] = test: cells; format: functional, cell-based; settings: Homo sapiens, A549, 72 h
Description: Antiproliferative activity against human A549 cells assessed as inhibition of cell proliferation measured after 72 hrs by CCK8 assay

SH-SY5Y [2] = test: cells; format: functional, cell-based; settings: Homo sapiens, 72 h
Description: Antiproliferative activity against human SH-SY5Y cells harboring ALK F1174L mutant assessed as inhibition of cell proliferation measured after 72 hrs by CCK8 assay

Histone deacetylase 1 [3] = target: T1, Histone deacetylase 1 (Homo sapiens, UniProt Q13547); settings: Sf9, dose 10.0 nM, time 15.0 min
Histone deacetylase 1 [4] = target: T1, Histone deacetylase 1; settings: Sf9, dose 100.0 nM, time 15.0 min
[5] = target: T2, ALK tyrosine kinase receptor (Homo sapiens, UniProt Q9UM73); test: Inhibition of ALK (unknown origin) at 10 nM preincubated for 10 mins followed by addition of substrate and ATP for 25 mins by caliper EZ reader method; settings: time 35.0 min
Target sequence in this assay (Q9UM73 19-1620 limits assumed): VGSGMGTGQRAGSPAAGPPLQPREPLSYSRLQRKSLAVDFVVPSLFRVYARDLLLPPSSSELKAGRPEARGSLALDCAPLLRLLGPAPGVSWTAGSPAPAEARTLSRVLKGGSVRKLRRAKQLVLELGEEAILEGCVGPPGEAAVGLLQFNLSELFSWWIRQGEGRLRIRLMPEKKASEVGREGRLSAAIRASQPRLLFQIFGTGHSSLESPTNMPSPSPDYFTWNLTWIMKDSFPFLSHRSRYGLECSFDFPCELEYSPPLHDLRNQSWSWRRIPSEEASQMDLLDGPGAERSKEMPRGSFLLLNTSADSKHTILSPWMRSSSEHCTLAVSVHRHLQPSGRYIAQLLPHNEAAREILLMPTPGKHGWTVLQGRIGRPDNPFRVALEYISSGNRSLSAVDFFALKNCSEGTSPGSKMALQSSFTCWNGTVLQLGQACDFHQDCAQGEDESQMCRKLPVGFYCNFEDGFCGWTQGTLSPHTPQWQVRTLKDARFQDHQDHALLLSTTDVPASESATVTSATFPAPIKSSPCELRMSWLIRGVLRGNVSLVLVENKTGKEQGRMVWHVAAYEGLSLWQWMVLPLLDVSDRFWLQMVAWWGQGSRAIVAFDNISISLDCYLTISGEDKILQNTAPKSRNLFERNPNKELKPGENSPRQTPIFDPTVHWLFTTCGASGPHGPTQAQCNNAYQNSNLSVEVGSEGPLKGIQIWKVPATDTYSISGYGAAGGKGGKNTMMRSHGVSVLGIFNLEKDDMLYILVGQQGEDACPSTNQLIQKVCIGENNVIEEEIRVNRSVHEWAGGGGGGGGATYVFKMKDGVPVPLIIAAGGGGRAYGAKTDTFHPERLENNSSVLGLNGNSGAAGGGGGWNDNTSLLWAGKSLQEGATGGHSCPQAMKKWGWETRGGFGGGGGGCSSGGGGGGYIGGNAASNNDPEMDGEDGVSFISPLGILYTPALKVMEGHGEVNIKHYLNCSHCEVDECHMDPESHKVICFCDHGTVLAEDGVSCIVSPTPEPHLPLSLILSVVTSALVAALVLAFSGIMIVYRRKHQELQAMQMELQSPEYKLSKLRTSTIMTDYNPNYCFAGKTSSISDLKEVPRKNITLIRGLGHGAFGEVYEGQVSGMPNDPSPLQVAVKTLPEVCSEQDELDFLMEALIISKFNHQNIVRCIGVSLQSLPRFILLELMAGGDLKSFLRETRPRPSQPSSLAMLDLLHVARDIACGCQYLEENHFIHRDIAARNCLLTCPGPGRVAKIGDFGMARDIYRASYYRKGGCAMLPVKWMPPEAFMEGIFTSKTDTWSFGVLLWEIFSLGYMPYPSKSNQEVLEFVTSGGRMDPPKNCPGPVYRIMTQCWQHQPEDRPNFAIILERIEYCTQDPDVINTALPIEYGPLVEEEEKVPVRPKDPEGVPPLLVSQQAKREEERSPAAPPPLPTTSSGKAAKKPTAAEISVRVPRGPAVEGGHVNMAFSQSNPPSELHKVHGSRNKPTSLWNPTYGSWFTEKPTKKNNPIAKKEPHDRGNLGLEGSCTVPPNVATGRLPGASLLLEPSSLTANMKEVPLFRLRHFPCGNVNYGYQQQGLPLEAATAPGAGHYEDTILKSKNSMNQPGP

[6] = target: T2, ALK tyrosine kinase receptor; test: Inhibition of ALK (unknown origin) at 100 nM preincubated for 10 mins followed by addition of substrate and ATP for 25 mins by caliper EZ reader method; settings: time 35.0 min
Target sequence in this assay (Q9UM73 19-1620 limits assumed): as above

Histone deacetylase 2 = Histone deacetylase 2 (Homo sapiens, UniProt Q92769)
Histone deacetylase 2, sequence (Q92769 whole entry): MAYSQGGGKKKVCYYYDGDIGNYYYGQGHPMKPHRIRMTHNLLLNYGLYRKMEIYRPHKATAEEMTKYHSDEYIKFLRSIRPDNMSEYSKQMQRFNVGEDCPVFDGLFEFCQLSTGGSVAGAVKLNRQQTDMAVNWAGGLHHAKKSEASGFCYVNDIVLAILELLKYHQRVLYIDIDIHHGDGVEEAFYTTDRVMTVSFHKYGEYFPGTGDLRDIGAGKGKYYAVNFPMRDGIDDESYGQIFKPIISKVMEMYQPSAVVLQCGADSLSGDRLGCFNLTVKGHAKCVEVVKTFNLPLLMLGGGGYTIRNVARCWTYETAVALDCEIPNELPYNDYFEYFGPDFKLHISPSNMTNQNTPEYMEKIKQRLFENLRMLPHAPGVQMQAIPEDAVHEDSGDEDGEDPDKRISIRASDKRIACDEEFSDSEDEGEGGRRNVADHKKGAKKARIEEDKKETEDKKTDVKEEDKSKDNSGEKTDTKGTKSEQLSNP
Description: Inhibition of HDAC2 (unknown origin)

[7] = target: T2, ALK tyrosine kinase receptor
Target sequence in this assay (Q9UM73 whole entry): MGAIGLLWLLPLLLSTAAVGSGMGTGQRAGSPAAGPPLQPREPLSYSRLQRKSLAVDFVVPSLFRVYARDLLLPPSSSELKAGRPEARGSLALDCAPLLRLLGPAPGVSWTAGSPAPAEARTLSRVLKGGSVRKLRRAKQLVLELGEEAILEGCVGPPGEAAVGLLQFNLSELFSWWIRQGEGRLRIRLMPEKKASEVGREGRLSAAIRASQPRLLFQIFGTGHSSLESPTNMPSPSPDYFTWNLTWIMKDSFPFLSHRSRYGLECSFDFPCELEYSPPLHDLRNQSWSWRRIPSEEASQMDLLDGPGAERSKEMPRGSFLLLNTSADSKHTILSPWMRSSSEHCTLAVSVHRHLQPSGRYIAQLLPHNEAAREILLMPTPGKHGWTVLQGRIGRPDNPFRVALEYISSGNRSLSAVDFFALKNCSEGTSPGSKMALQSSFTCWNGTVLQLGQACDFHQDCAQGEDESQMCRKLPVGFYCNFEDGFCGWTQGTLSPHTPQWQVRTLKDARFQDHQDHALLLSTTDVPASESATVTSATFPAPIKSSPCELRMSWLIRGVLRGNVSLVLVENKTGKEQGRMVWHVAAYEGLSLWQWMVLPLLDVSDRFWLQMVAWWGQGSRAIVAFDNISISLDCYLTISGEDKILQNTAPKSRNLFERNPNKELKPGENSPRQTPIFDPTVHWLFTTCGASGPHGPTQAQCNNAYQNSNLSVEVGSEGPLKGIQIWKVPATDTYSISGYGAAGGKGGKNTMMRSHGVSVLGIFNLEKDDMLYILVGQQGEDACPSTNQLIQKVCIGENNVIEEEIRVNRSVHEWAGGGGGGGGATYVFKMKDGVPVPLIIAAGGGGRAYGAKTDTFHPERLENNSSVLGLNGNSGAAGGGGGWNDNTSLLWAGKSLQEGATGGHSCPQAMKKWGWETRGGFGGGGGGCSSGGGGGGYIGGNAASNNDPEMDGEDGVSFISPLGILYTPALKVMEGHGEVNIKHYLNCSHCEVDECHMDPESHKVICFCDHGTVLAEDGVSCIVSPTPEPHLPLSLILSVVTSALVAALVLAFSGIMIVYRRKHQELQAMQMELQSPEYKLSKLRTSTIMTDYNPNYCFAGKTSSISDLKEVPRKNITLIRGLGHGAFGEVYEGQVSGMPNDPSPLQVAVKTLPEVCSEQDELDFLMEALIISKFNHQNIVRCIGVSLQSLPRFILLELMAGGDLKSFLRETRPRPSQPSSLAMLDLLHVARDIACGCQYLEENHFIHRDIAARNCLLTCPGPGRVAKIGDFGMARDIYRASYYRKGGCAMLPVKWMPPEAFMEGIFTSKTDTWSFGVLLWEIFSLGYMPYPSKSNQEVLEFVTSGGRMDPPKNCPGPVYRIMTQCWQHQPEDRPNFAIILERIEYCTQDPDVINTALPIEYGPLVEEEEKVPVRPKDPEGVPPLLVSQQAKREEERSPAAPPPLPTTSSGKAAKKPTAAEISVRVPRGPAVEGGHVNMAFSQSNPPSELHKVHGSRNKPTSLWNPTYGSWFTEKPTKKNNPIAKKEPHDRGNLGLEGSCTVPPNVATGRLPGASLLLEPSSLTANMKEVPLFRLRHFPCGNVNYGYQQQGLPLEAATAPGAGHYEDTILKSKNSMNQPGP
Description: Inhibition of ALK (unknown origin) preincubated for 10 mins followed by addition of substrate and ATP for 25 mins by caliper EZ reader method

[8] = target: ALK tyrosine kinase receptor (Homo sapiens, UniProt Q9UM73, L1196M)
ALK tyrosine kinase receptor (Homo sapiens, UniProt Q9UM73, L1196M), sequence (Q9UM73 19-1620 L1196M limits assumed): as the sequence (Q9UM73 19-1620 limits assumed) above, with L1178M counted along it

[9] = target: ALK tyrosine kinase receptor (Homo sapiens, UniProt Q9UM73, G1202R)
ALK tyrosine kinase receptor (Homo sapiens, UniProt Q9UM73, G1202R), sequence (Q9UM73 19-1620 G1202R limits assumed): as the sequence (Q9UM73 19-1620 limits assumed) above, with G1184R counted along it

HepG2 [10] = test: cells; format: functional, cell-based; settings: Homo sapiens, HepG2, 72 h
Description: Antiproliferative activity against human HepG2 cells assessed as inhibition of cell proliferation measured after 72 hrs by CCK8 assay

cells = format: functional, cell-based; settings: Homo sapiens, SKNBE2, 72 h
Description: Antiproliferative activity against human SKNBE2 cells harboring wild type ALK assessed as inhibition of cell proliferation measured after 72 hrs by CCK8 assay

NCI-H2228 [11] = test: cells; format: functional, cell-based; settings: Homo sapiens, NCI-H2228, 72 h
MDA-MB-231 [12] = test: cells; format: functional, cell-based; settings: Homo sapiens, MDA-MB-231, 72 h
Description: Antiproliferative activity against human MDA-MB-231 cells assessed as inhibition of cell proliferation measured after 72 hrs by CCK8 assay

HepG2 [13] = test: Potency index, ratio of ceritinib IC50 to test compound IC50 for human HepG2 cells assessed as inhibition of cell proliferation measured after 72 hrs by CCK8 assay; format: functional
HepG2 [14] = test: Potency index, ratio of crizotinib IC50 to test compound IC50 for human HepG2 cells assessed as inhibition of cell proliferation measured after 72 hrs by CCK8 assay; format: functional
A549 [15] = test: Potency index, ratio of ceritinib IC50 to test compound IC50 for human A549 cells assessed as inhibition of cell proliferation measured after 72 hrs by CCK8 assay; format: functional
A549 [16] = test: Potency index, ratio of crizotinib IC50 to test compound IC50 for human A549 cells assessed as inhibition of cell proliferation measured after 72 hrs by CCK8 assay; format: functional
[17] = Potency index, ratio of ceritinib IC50 to test compound IC50 for human SKNBE2 cells harboring wild type ALK assessed as inhibition of cell proliferation measured after 72 hrs by CCK8 assay; format: functional
[18] = Potency index, ratio of crizotinib IC50 to test compound IC50 for human SKNBE2 cells harboring wild type ALK assessed as inhibition of cell proliferation measured after 72 hrs by CCK8 assay; format: functional
SH-SY5Y [19] = test: Potency index, ratio of ceritinib IC50 to test compound IC50 for human SH-SY5Y cells harboring ALK F1174L mutant assessed as inhibition of cell proliferation measured after 72 hrs by CCK8 assay; format: functional
SH-SY5Y [20] = test: Potency index, ratio of crizotinib IC50 to test compound IC50 for human SH-SY5Y cells harboring ALK F1174L mutant assessed as inhibition of cell proliferation measured after 72 hrs by CCK8 assay; format: functional
NCI-H2228 [21] = test: Potency index, ratio of ceritinib IC50 to test compound IC50 for human NCI-H2228 cells harboring EML4/ALK […] assessed as inhibition of cell proliferation measured after 72 hrs by CCK8 assay; format: functional
NCI-H2228 [22] = test: Potency index, ratio of crizotinib IC50 to test compound IC50 for human NCI-H2228 cells harboring EML4/ALK […] assessed as inhibition of cell proliferation measured after 72 hrs by CCK8 assay; format: functional
MDA-MB-231 [23] = test: Potency index, ratio of ceritinib IC50 to test compound IC50 for human MDA-MB-231 cells assessed as inhibition of cell proliferation measured after 72 hrs by CCK8 assay; format: functional
MDA-MB-231 [24] = test: Potency index, ratio of crizotinib IC50 to test compound IC50 for human MDA-MB-231 cells assessed as inhibition of cell proliferation measured after 72 hrs by CCK8 assay; format: functional
[25] = target: T3, Protein deacetylase HDAC6 (Homo sapiens, UniProt Q9UBN7)
T3 sequence (Q9UBN7 whole entry): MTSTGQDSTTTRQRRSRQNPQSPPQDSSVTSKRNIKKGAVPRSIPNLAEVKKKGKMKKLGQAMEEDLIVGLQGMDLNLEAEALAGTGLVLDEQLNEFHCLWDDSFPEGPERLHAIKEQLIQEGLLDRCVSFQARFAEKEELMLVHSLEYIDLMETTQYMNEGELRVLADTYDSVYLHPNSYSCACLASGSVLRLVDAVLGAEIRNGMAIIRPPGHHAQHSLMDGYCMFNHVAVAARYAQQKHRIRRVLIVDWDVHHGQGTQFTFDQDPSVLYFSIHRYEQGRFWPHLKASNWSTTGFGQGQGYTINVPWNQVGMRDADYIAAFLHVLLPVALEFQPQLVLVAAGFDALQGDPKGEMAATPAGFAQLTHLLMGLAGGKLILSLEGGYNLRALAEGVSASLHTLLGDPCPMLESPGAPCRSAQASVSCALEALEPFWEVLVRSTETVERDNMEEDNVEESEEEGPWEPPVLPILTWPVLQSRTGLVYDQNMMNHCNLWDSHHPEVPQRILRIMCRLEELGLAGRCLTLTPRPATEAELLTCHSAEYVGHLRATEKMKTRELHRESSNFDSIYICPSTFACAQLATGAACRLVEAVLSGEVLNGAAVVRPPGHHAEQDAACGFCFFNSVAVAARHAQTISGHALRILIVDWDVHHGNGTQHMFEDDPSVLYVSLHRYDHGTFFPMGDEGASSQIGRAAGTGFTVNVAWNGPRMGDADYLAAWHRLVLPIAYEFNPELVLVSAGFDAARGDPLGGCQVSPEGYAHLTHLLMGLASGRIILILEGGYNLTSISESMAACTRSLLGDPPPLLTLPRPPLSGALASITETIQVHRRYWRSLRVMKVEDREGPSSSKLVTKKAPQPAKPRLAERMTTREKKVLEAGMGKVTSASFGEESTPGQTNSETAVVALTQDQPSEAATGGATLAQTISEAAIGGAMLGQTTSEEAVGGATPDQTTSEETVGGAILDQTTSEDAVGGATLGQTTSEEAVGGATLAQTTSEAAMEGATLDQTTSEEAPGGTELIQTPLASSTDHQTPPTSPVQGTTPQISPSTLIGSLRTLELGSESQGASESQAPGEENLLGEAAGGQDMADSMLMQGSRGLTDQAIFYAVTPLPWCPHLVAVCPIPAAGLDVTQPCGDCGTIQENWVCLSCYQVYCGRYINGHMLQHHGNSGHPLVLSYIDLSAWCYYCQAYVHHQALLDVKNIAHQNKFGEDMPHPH
Description: Inhibition of HDAC6 (unknown origin)

Histone deacetylase 1 [26] = target: T1, Histone deacetylase 1; test: biochemical
Description: Inhibition of recombinant human C-terminal His/FLAG-tagged HDAC1 (1 to 482 residues) expressed in Sf9 insect cells using Ac-peptide-AMC as substrate preincubated for 15 mins followed by addition of substrate and trypsin measured by flourescence assay

MDA-MB-231 [27] = test: Induction of apoptosis in human MDA-MB-231 cells assessed as viable cells at 1 uM measured after 24 hrs by Annexin V-FITC/PI staining based flowcytometry (reference value: 93.14%); format: functional; settings: read-out: Activity
MDA-MB-231 [28] = test: Induction of apoptosis in human MDA-MB-231 cells assessed as early apoptotic cells at 1 uM measured after 24 hrs by Annexin V-FITC/PI staining based flowcytometry ( Rvb = […]%); format: functional
MDA-MB-231 [29] = test: Induction of apoptosis in human MDA-MB-231 cells assessed as late apoptotic cells at 1 uM measured after 24 hrs by Annexin V-FITC/PI staining based flowcytometry ( Rvb = 5.28%); format: functional
MDA-MB-231 [30] = test: Induction of apoptosis in human MDA-MB-231 cells assessed as necrotic cells at 1 uM measured after 24 hrs by Annexin V-FITC/PI staining based flowcytometry (reference value: 0.94%); format: functional
SH-SY5Y [31] = test: Induction of apoptosis in human SH-SY5Y cells assessed as viable cells at 1 uM measured after 24 hrs by Annexin V-FITC/PI staining based flowcytometry (reference value: 77.05%); format: functional; settings: read-out: Activity
SH-SY5Y [32] = test: Induction of apoptosis in human SH-SY5Y cells assessed as early apoptotic cells at 1 uM measured after 24 hrs by Annexin V-FITC/PI staining based flowcytometry (reference value: 0.82%); format: functional
SH-SY5Y [33] = test: Induction of apoptosis in human SH-SY5Y cells assessed as late apoptotic cells at 1 uM measured after 24 hrs by Annexin V-FITC/PI staining based flowcytometry (reference value: 14.32%); format: functional
SH-SY5Y [34] = test: Induction of apoptosis in human SH-SY5Y cells assessed as necrotic cells at 1 uM measured after 24 hrs by Annexin V-FITC/PI staining based flowcytometry (reference value: 7.81%); format: functional

T1 sequence (Q13547 whole entry): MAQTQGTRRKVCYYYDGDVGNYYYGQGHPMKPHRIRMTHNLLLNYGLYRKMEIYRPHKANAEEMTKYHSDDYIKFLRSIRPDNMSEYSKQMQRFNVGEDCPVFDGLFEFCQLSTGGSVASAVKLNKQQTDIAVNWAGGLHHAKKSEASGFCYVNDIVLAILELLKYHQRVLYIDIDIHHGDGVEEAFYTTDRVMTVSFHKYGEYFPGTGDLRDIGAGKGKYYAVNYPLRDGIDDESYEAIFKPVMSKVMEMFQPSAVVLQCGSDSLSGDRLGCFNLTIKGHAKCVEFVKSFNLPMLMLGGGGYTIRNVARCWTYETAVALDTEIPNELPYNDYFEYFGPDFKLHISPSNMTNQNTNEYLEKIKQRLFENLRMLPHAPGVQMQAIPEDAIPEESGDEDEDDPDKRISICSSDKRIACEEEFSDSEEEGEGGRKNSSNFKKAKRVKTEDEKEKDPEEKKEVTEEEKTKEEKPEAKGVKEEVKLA

Compound: CC(C)S(=O)(=O)c1ccccc1Nc1nc(Nc2ccc(C(=O)NCCCCCCC(=O)NO)cc2)ncc1Cl
- IC50 (A549 [1]): 3420 nM
- IC50 (SH-SY5Y [2]): 340 nM
- inhibition (Histone deacetylase 1 [3]): 49%
- inhibition (Histone deacetylase 1 [4]): 100%
- inhibition [5]: 84.5%
- inhibition [6]: 103%
- IC50 (Histone deacetylase 2): 15 nM
- IC50 [7]: 4.3 nM
- IC50 [8]: 2.4 nM
- IC50 [9]: 1 nM
- IC50 (HepG2 [10]): 910 nM
- IC50 (cells): 220 nM
- IC50 (NCI-H2228 [11]): 180 nM
- IC50 (MDA-MB-231 [12]): 390 nM
- Ratio IC50 (HepG2 [13]): 3
- Ratio IC50 (HepG2 [14]): 3
- Ratio IC50 (A549 [15]): 3
- Ratio IC50 (A549 [16]): 3
- Ratio IC50 [17]: 3
- Ratio IC50 [18]: 3
- Ratio IC50 (SH-SY5Y [19]): 3
- Ratio IC50 (SH-SY5Y [20]): 3
- Ratio IC50 (NCI-H2228 [21]): 3
- Ratio IC50 (NCI-H2228 [22]): 3
- Ratio IC50 (MDA-MB-231 [23]): 3
- Ratio IC50 (MDA-MB-231 [24]): 3
- IC50 [25]: 6.7 nM
- IC50 (Histone deacetylase 1 [26]): 12 nM

Compound: Cc1cc(Nc2ncc(Cl)c(Nc3ccccc3S(=O)(=O)C(C)C)n2)c(OC(C)C)cc1C1CCNCC1 [CERITINIB]
- IC50 (SH-SY5Y [2]): 370 nM
- IC50 (HepG2 [10]): 4080 nM
- IC50 (cells): 2660 nM
- IC50 (NCI-H2228 [11]): 1980 nM
- IC50 (MDA-MB-231 [12]): 1820 nM
- viability at 1 µM (MDA-MB-231 [27]): 90.2%
- Activity (MDA-MB-231 [28]): 1.17%
- Activity (MDA-MB-231 [29]): 7.07%
- Activity (MDA-MB-231 [30]): 1.55%
- viability at 1 µM (SH-SY5Y [31]): 81.9%
- Activity (SH-SY5Y [32]): 2.07%
- Activity (SH-SY5Y [33]): 20.4%
- Activity (SH-SY5Y [34]): 11.77%
